Data as given in the NIST ThermoML archive (doi:10.1021/je300175w).
Values joined by “and” are separate entries in the source; they are usually repeats but may differ in a detail not shown here. Equal entries are not always repeated.

Experiment: mn = molality of the nth substance listed, in mol/kg
Conditions: 101 kPa, Liquid; for mass density: Vibrating tube method; for speed of sound: Sing-around technique in a fixed-path interferometer

CC(C)(CO)CO [2,2-dimethyl-1,3-propanediol] + O
Conditions	mass density	speed of sound
273.15 K, m1 = 0.1001	1000.25 kg/m3	–
273.15 K, m1 = 0.2006	1000.57 kg/m3	–
273.15 K, m1 = 0.2997	1000.91 kg/m3	–
273.15 K, m1 = 0.4021	1001.28 kg/m3	–
273.15 K, m1 = 0.5001	1001.66 kg/m3	–
273.15 K, m1 = 0.6007	1002.07 kg/m3	–
278.15 K, m1 = 0.1001	–	1435.8 m/s
278.15 K, m1 = 0.2006	–	1445.4 m/s
278.15 K, m1 = 0.2997	–	1454.5 m/s
278.15 K, m1 = 0.4021	–	1463.8 m/s
278.15 K, m1 = 0.5001	–	1472.5 m/s
278.15 K, m1 = 0.6007	–	1481.3 m/s
283.15 K, m1 = 0.1001	999.968 kg/m3 and 999.967 kg/m3	1456.2 m/s
283.15 K, m1 = 0.2006	1000.26 kg/m3	1464.9 m/s
283.15 K, m1 = 0.2997	1000.57 kg/m3	1473.3 m/s and 1473.4 m/s
283.15 K, m1 = 0.4021	1000.92 kg/m3	1481.9 m/s
283.15 K, m1 = 0.5001	1001.26 kg/m3	1489.9 m/s
283.15 K, m1 = 0.6007	1001.63 kg/m3 and 1001.64 kg/m3	1497.9 m/s and 1498 m/s
288.15 K, m1 = 0.1001	999.35 kg/m3 and 999.351 kg/m3	1474.1 m/s and 1474.2 m/s
288.15 K, m1 = 0.2006	999.623 kg/m3	1482.2 m/s
288.15 K, m1 = 0.2997	999.911 kg/m3 and 999.913 kg/m3	1490 m/s and 1489.9 m/s
288.15 K, m1 = 0.4021	1000.23 kg/m3	1497.8 m/s
288.15 K, m1 = 0.5001	1000.54 kg/m3 and 1000.55 kg/m3	1505.2 m/s
288.15 K, m1 = 0.6007	1000.88 kg/m3	1512.6 m/s
293.15 K, m1 = 0.1001	998.435 kg/m3 and 998.438 kg/m3 and 998.44 kg/m3	1489.9 m/s
293.15 K, m1 = 0.2006	998.688 kg/m3 and 998.69 kg/m3 and 998.693 kg/m3	1497.4 m/s and 1497.3 m/s
293.15 K, m1 = 0.2997	998.956 kg/m3 and 998.958 kg/m3 and 998.96 kg/m3	1504.5 m/s
293.15 K, m1 = 0.4021	999.245 kg/m3 and 999.25 kg/m3 and 999.252 kg/m3	1511.8 m/s
293.15 K, m1 = 0.5001	999.536 kg/m3 and 999.541 kg/m3 and 999.543 kg/m3	1518.5 m/s
293.15 K, m1 = 0.6007	999.846 kg/m3 and 999.849 kg/m3 and 999.851 kg/m3	1525.3 m/s
298.15 K, m1 = 0.1001	997.263 kg/m3 and 997.264 kg/m3 and 997.261 kg/m3	1503.7 m/s
298.15 K, m1 = 0.2006	997.499 kg/m3	1510.5 m/s and 1510.6 m/s
298.15 K, m1 = 0.2997	997.744 kg/m3 and 997.745 kg/m3 and 997.742 kg/m3	1517.1 m/s and 1517.2 m/s
298.15 K, m1 = 0.4021	998.013 kg/m3 and 998.015 kg/m3	1523.8 m/s and 1523.9 m/s
298.15 K, m1 = 0.5001	998.28 kg/m3 and 998.279 kg/m3 and 998.282 kg/m3	1530 m/s and 1530.1 m/s
298.15 K, m1 = 0.6007	998.56 kg/m3 and 998.559 kg/m3 and 998.562 kg/m3	1536.2 m/s and 1536.3 m/s
303.15 K, m1 = 0.1001	995.849 kg/m3 and 995.85 kg/m3	1515.6 m/s
303.15 K, m1 = 0.2006	996.066 kg/m3 and 996.067 kg/m3	1521.9 m/s
303.15 K, m1 = 0.2997	996.293 kg/m3 and 996.294 kg/m3	1528 m/s
303.15 K, m1 = 0.4021	996.538 kg/m3 and 996.539 kg/m3	1534.1 m/s
303.15 K, m1 = 0.5001	996.781 kg/m3	1539.9 m/s and 1539.8 m/s
303.15 K, m1 = 0.6007	997.037 kg/m3 and 997.036 kg/m3	1545.6 m/s and 1545.5 m/s
308.15 K, m1 = 0.1001	994.216 kg/m3 and 994.215 kg/m3	1525.8 m/s
308.15 K, m1 = 0.2006	994.415 kg/m3 and 994.416 kg/m3	1531.6 m/s and 1531.5 m/s
308.15 K, m1 = 0.2997	994.624 kg/m3 and 994.621 kg/m3	1537.2 m/s and 1537.1 m/s
308.15 K, m1 = 0.4021	994.845 kg/m3 and 994.847 kg/m3	1542.8 m/s
308.15 K, m1 = 0.5001	995.067 kg/m3 and 995.065 kg/m3 and 995.068 kg/m3	1548 m/s and 1548.1 m/s
308.15 K, m1 = 0.6007	995.297 kg/m3 and 995.296 kg/m3 and 995.298 kg/m3	1553.2 m/s and 1553.1 m/s
318.15 K, m1 = 0.1001	990.368 kg/m3 and 990.367 kg/m3	1541.5 m/s and 1541.4 m/s
318.15 K, m1 = 0.2006	990.531 kg/m3 and 990.532 kg/m3 and 990.533 kg/m3	1546.4 m/s and 1546.3 m/s
318.15 K, m1 = 0.2997	990.701 kg/m3 and 990.7 kg/m3	1551 m/s
318.15 K, m1 = 0.4021	990.883 kg/m3 and 990.882 kg/m3	1555.6 m/s and 1555.7 m/s
318.15 K, m1 = 0.5001	991.06 kg/m3 and 991.057 kg/m3 and 991.058 kg/m3	1559.9 m/s and 1560 m/s
318.15 K, m1 = 0.6007	991.242 kg/m3 and 991.241 kg/m3	1564.2 m/s and 1564.3 m/s
